Experimental data: US8957064B2, “Fused pyrimidines” (Bayer Intellectual Property GmbH, priority 2009, dated 2015)

Assays:
[1] = target: His-tagged human recombinant kinase full-length Akt1 (Homo sapiens (Human), UniProt P31749); assay: Akt1 kinase assay (Akt1 TR-FRET assay, Biological Assay 1.0); assay type: biochemical; settings: 10 μM ATP, 1 μM biotinylated peptide substrate, 60 min at 22° C.
Procedure, shortened: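 Insect-cell-expressed full-length His-Akt1 (~0.05 ng/μl) preincubated 15 min with compound, then reacted 60 min at 22 °C with 10 μM ATP and 1 μM biotinylated peptide (final), pH 7.5. Phosphopeptide detected by HTRF (665/620 nm ratio). Data normalised to no-inhibitor and no-enzyme controls.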

[2] = target: His-tagged human recombinant kinase full-length Akt2 activated by PDK1 (Homo sapiens (Human), UniProt P31751); assay: Akt2 kinase assay (Akt2 TR-FRET assay, Biological Assay 2.0); assay type: biochemical; settings: 10 μM ATP, 1 μM biotinylated peptide substrate, 60 min at 22° C.
Sequence of His-tagged human recombinant kinase full-length Akt2 activated by PDK1 (P31751 whole entry): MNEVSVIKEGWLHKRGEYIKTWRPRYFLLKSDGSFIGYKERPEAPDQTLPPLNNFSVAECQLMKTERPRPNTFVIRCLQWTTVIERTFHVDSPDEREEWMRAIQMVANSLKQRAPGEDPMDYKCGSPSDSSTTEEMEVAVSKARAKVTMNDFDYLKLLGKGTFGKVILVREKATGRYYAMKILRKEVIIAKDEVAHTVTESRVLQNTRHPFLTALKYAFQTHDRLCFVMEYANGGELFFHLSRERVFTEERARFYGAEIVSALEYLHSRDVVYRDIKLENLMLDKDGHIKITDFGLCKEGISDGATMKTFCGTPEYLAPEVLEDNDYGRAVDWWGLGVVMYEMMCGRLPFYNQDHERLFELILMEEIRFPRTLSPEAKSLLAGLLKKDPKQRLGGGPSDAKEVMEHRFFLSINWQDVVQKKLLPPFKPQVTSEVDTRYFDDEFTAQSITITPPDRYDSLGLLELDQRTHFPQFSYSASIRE
Procedure, shortened: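 Compound was pre-incubated with enzyme (~0.2 ng/µl final) for 15 min at 22 °C in Tris pH 7.5, 5 mM MgCl2, then reacted 60 min with 10 µM ATP and 1 µM biotinylated peptide. Phosphopeptide was detected by TR-FRET (665/622 nm ratio). Data were normalised to no-inhibitor (0%) and no-enzyme (100%) controls.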

Sequence of His-tagged human recombinant kinase full-length Akt1 (P31749 whole entry): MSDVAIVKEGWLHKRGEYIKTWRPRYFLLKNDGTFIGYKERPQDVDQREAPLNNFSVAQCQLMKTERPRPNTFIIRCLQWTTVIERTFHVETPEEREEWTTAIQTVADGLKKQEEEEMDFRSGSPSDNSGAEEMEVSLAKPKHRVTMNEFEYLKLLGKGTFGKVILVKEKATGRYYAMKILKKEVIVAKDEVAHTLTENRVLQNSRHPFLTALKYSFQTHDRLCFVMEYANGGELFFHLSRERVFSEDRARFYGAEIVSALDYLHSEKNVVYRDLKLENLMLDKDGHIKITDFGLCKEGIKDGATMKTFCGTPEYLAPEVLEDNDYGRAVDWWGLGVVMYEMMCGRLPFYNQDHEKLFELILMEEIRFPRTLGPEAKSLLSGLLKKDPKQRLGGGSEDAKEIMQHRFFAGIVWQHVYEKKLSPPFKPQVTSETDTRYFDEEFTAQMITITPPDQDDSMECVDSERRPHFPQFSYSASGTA

Row | Structure (SMILES) | melting point [°C] | IC50 [1] [nM] | IC50 [2] [nM]
1 | Cc1nc2nc(-c3ccc(CN4CC(c5n[nH]c(-c6ccccn6)n5)C4)cc3)c(-c3ccccc3)c(NC(C)C)n2n1 [Example 45.2, isopropyl-(2-methyl-6-phenyl-5-{4-[3-(5-pyridin-2-yl-1H-[1,2,4]triazol-3-yl)-azetidin-1-ylmethyl]-phenyl}-[1,2,4]triazolo[1,5-a]pyrimidin-7-yl)-amine] | 176.8 |  | 
2 | Fc1ccc(-c2cn3nc(C4CC4)nc3nc2-c2ccc(CN3CCC(c4n[nH]c(-c5cc(Cl)ccn5)n4)CC3)cc2)cc1 [Example 51.2, 5-(4-{4-[5-(4-chloropyridine-2-yl)-1H-[1,2,4]triazole-3-yl]-piperidine-1-ylmethyl}-phenyl)-2-cyclopropyl-6-(4-fluorophenyl)-[1,2,4]triazolo[1,5-a]pyrimidine] |  | 56 | 165
3 | Fc1ccc(-c2cn3ccnc3nc2-c2ccc(CN3CC(c4n[nH]c(-c5ccccn5)n4)C3)cc2)cc1 [Example 33.0, 6-(4-fluorophenyl)-7-{4-[3-(5-pyridine-2-yl-1H-[1,2,4]triazole-3-yl]-azetidine-1-ylmethyl]-phenyl}-imidazo[1,2-a]pyrimidine] |  | 26 | 253
4 | Cc1cccc(-c2nc(C3CN(Cc4ccc(-c5nc6nc(C7CC7)nn6cc5-c5ccc(F)cc5)cc4)C3)n[nH]2)n1 [Example 39.0, 2-cyclopropyl-6-(4-fluorophenyl)-5-(4-{3-[5-(6-methyl-pyridine-2-yl)-1H-[1,2,4]triazole-3-yl]-azetidine-1-ylmethyl}-phenyl)-[1,2,4]triazolo[1,5-a]pyrimidine] |  | 29 | 27
5 | Clc1cnc2nc(-c3ccc(CN4CC(c5nnc(-c6ccccn6)[nH]5)C4)cc3)c(-c3ccccc3)cn12 [Example 5.0, 3-Chloro-6-phenyl-7-(4-{[3-(5-pyridin-2-yl-1,2,4-triazol-3-yl)azetidin-1-yl]methyl}phenyl)imidazo[1,2-a]pyrimidine] |  | 6 | 11
6 | c1ccc(-c2cn3nc(C4CC4)nc3nc2-c2ccc(CN3CC(c4n[nH]c(-c5ccccn5)n4)C3)cc2)cc1 [Example 70.0] |  | 7 | 5

More lines, in order of falling IC50 [1], values ahead:

Row | melting point [°C] | IC50 [1] [nM] | IC50 [2] [nM] | Structure (SMILES)
7 |  | 112 | 228 | Cc1nc2nc(-c3ccc(CN4CCC(c5nc6ccc(F)cc6[nH]5)CC4)cc3)c(-c3ccccc3)cn2n1 [Example 13.0, 5-{4-[4-(6-fluoro-1H-benzoimidazol-2-yl)-piperidin-1-ylmethyl]-phenyl}-2-methyl-6-phenyl-[1,2,4]triazolo[1,5-a]pyrimidine]
8 |  | 77 | 256 | Cc1cn2cc(-c3ccccc3)c(-c3ccc(CN4CCC(c5cnc6ccccc6n5)CC4)cc3)nc2n1 [Example 37.0, 2-{1-[4-(2-methyl-6-phenyl-imidazo[1,2-a]pyrimidin-7-yl)benzyl]-piperidine-4-yl}-quinoxaline]
9 |  | 72 | 124 | OCc1cn2cc(-c3ccccc3)c(-c3ccc(CN4CC(c5n[nH]c(-c6ccccn6)n5)C4)cc3)nc2n1 [Example 75.0]
10 |  | 39 | 316 | N#Cc1ccc2nc(C3CCN(Cc4ccc(-c5nc6ccnn6cc5-c5ccccc5)cc4)CC3)[nH]c2c1 [Example 12.0, 2-{1-[4-(6-phenyl-pyrazolo[1,5-a]pyrimidin-5-yl)-benzyl]-piperidin-4-yl}-3H-benzimidazol-5-carbonitrile]
11 |  | 6 | 3 | Cc1cccc(-c2nc(C3CN(Cc4ccc(-c5nc6nc(C)c(Br)n6cc5-c5ccccc5)cc4)C3)n[nH]2)n1 [Example 57.0, 3-bromo-2-methyl-7-{4-{3-[5-(6-methylpyridine-2-yl)-1H-[1,2,4]triazole-3-yl)-azetidine-1-ylmethyl]-phenyl}-6-phenyl-imidazo[1,2-a]pyrimidine]
12 |  | 5 | 203 | COC(=O)c1cnn2cc(-c3c(F)cccc3F)c(-c3ccc(CN4CCC(c5n[nH]c(-c6ccccn6)n5)CC4)cc3)nc12 [Example 48.1, 6-(2,6-difluorophenyl)-5-(4-{4-[5-(pyridine-2-yl)-1H-[1,2,4]triazole-3-yl]-piperidine-1-ylmethyl}-phenyl)-pyrazolo[1,5-a]pyrimidine-3-carboxylic acid methyl ester]
